Experimental data reported in PubChem BioAssay AID330 (DTP/NCI, 2004).
Values joined by “and” are separate entries in the source; they are usually repeats but may differ in a detail not shown here. Equal values may be shown once. Inconclusive results and toxic doses are left out.

System: P388 leukemia ip, CD2F1 mice, survival T/C
Test: NCI In Vivo Anticancer Drug Screen. Data for tumor model P388 Leukemia (intraperitoneal) in CD2F1 (CDF1) mice
Settings: endpoint: median survival time, higher = longer survival
How it was run: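 Mice carrying the transplanted tumor received test compound or vehicle. Survival was recorded in each group, and the value is the treated-group measurement divided by that of the vehicle-treated control group.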

[1] = dose: 60.0 mg/kg/injection, schedule: Q01DX005 (ip), vehicle: saline with Tween-80
[2] = dose: 120.0 mg/kg/injection, schedule: Q01DX005 (ip), vehicle: saline with Tween-80
[3] = dose: 240.0 mg/kg/injection, schedule: Q01DX005 (ip), vehicle: saline with Tween-80
[4] = dose: 50.0 mg/kg/injection, schedule: Q01DX005 (ip), vehicle: saline with Tween-80
[5] = dose: 100.0 mg/kg/injection, schedule: Q01DX005 (ip), vehicle: saline with Tween-80
[6] = dose: 200.0 mg/kg/injection, schedule: Q01DX005 (ip), vehicle: saline with Tween-80
[7] = dose: 100.0 mg/kg/injection, schedule: Q01DX009 (ip), vehicle: saline
[8] = dose: 200.0 mg/kg/injection, schedule: Q01DX009 (ip), vehicle: saline
[9] = dose: 50.0 mg/kg/injection, schedule: Q01DX009 (ip), vehicle: saline with Tween-80
[10] = dose: 100.0 mg/kg/injection, schedule: Q01DX009 (ip), vehicle: saline with Tween-80
[11] = dose: 200.0 mg/kg/injection, schedule: Q01DX009 (ip), vehicle: saline with Tween-80
[12] = dose: 50.0 mg/kg/injection, schedule: Q01DX009 (ip), vehicle: Klucel (hydroxypropylcellulose) (HPC)
[13] = dose: 100.0 mg/kg/injection, schedule: Q01DX009 (ip), vehicle: Klucel (hydroxypropylcellulose) (HPC)
[14] = dose: 200.0 mg/kg/injection, schedule: Q01DX009 (ip), vehicle: Klucel (hydroxypropylcellulose) (HPC)
[15] = dose: 100.0 mg/kg/injection, schedule: Q01DX001 (ip), vehicle: Klucel (hydroxypropylcellulose) (HPC)
[16] = dose: 200.0 mg/kg/injection, schedule: Q01DX001 (ip), vehicle: Klucel (hydroxypropylcellulose) (HPC)
[17] = dose: 400.0 mg/kg/injection, schedule: Q01DX001 (ip), vehicle: Klucel (hydroxypropylcellulose) (HPC)

O=C(O)/C=C/c1c2ccc(=O)c(O)c-2oc2c(O)c(O)ccc12
T/C [1]: 93 % of control
T/C [2]: 93 % of control
T/C [3]: 92 % of control

CCCCCCc1cc(-c2cc(CCCCCC)[nH]n2)n[nH]1
T/C (dose: 60.0 mg/kg/injection, schedule: Q01DX005 (ip), vehicle: Klucel (hydroxypropylcellulose) (HPC)): 100 % of control
T/C (dose: 120.0 mg/kg/injection, schedule: Q01DX005 (ip), vehicle: Klucel (hydroxypropylcellulose) (HPC)): 98 % of control
T/C (dose: 240.0 mg/kg/injection, schedule: Q01DX005 (ip), vehicle: Klucel (hydroxypropylcellulose) (HPC)): 95 % of control

CCN(CC)CCn1c(C)nc2c1C(=O)c1nc(C)n(CCN(CC)CC)c1C2=O
T/C (dose: 6.25 mg/kg/injection, schedule: Q01DX005 (ip), vehicle: saline): 100 % of control
T/C (dose: 12.5 mg/kg/injection, schedule: Q01DX005 (ip), vehicle: saline): 109 % of control

C1CN(/N=N/N2CCC2)C1
T/C (dose: 6.25 mg/kg/injection, schedule: Q01DX005 (ip), vehicle: Klucel (hydroxypropylcellulose) (HPC)): 98 % of control
T/C (dose: 12.5 mg/kg/injection, schedule: Q01DX005 (ip), vehicle: Klucel (hydroxypropylcellulose) (HPC)): 100 % of control
T/C (dose: 25.0 mg/kg/injection, schedule: Q01DX005 (ip), vehicle: Klucel (hydroxypropylcellulose) (HPC)): 102 % of control

CCOc1ccccc1NC(=O)CC(=O)N1N=C(c2ccccc2)C(N=Nc2ccc(S(N)(=O)=O)cc2)C1=O (stereo not drawn)
T/C [4]: 110 % of control
T/C [5]: 102 % of control
T/C [6]: 102 % of control

COc1ccc(OC)c(N=Cc2cccs2)c1
T/C (dose: 50.0 mg/kg/injection, schedule: Q01DX009 (ip), vehicle: saline): 90 % of control
T/C [7]: 100 % of control
T/C [8]: 92 % of control

C=CC(C)(C)[N+](C)(C)C
T/C (dose: 12.5 mg/kg/injection, schedule: Q01DX009 (ip), vehicle: saline): 99 % of control
T/C (dose: 25.0 mg/kg/injection, schedule: Q01DX009 (ip), vehicle: saline): 102 % of control

Fc1cccc(CSC(=S)Nc2ccccc2)c1
T/C (dose: 100.0 mg/kg/injection, schedule: Q01DX001 (ip), vehicle: saline): 106 % of control
T/C (dose: 200.0 mg/kg/injection, schedule: Q01DX001 (ip), vehicle: saline): 102 % of control
T/C (dose: 400.0 mg/kg/injection, schedule: Q01DX001 (ip), vehicle: saline): 102 % of control

CCCN(C)C(=O)N(CCCl)N=O
T/C (dose: 16.0 mg/kg/injection, schedule: Q01DX001 (ip), vehicle: water): 166 % of control
T/C (dose: 32.0 mg/kg/injection, schedule: Q01DX001 (ip), vehicle: water): 240 % of control

O=c1[nH]nc(-c2ccc([N+](=O)[O-])o2)o1
T/C (dose: 6.25 mg/kg/injection, schedule: Q01DX009 (ip), vehicle: saline with Tween-80): 101 % of control
T/C (dose: 12.5 mg/kg/injection, schedule: Q01DX009 (ip), vehicle: saline with Tween-80): 106 % of control
T/C (dose: 25.0 mg/kg/injection, schedule: Q01DX009 (ip), vehicle: saline with Tween-80): 97 % of control
T/C [9]: 99 % of control

COC(=O)c1nnn(-c2ccc(S(N)(=O)=O)cc2)c1C(=O)c1ccc(OC)cc1
T/C [1]: 100 % of control
T/C [2]: 99 % of control
T/C [3]: 94 % of control

CCN(CC)CCNC(=O)c1nn(-c2ccc(C)cc2)c2c1N(C)S(=O)(=O)c1ccccc1-2
T/C (dose: 100.0 mg/kg/injection, schedule: Q01DX001 (ip), vehicle: saline with Tween-80): 100 % of control
T/C (dose: 200.0 mg/kg/injection, schedule: Q01DX001 (ip), vehicle: saline with Tween-80): 97 % of control
T/C (dose: 400.0 mg/kg/injection, schedule: Q01DX001 (ip), vehicle: saline with Tween-80): 97 % of control

O=C1CN=C(c2ccccn2)c2cc(Cl)ccc2N1CCO
T/C [10]: 100 % of control
T/C [11]: 105 % of control

CC(C)NS(=O)(=O)OCC(O)(CC(Cl)(Cl)Cl)c1ccccc1 (stereo not drawn)
T/C [9]: 105 % of control
T/C [10]: 109 % of control and 112 % of control
T/C [11]: 105 % of control

O=C(O)Cc1cccc(S(=O)(=O)F)c1
T/C [1]: 104 % of control
T/C [2]: 100 % of control

C[n+]1ccc(/C(C#N)=N/O)cc1
T/C [12]: 119 % of control
T/C [13]: 110 % of control
T/C [14]: 109 % of control

CN=C1NC(=O)C(C(C)c2c[nH]c3ccccc23)S1 (stereo not drawn)
T/C [12]: 111 % of control
T/C [13]: 111 % of control
T/C [14]: 113 % of control

COC(=O)c1c(OC)cc2cc3c(c(O)c2c1C)C(=O)C1(O)C(=O)C=C(OC)C(OC(=O)CC(C)N)=C1C3=O (stereo not drawn)
T/C (dose: 25.0 mg/kg/injection, schedule: Q01DX005 (ip), vehicle: water): 103 % of control
T/C (dose: 50.0 mg/kg/injection, schedule: Q01DX005 (ip), vehicle: water): 100 % of control
T/C (dose: 100.0 mg/kg/injection, schedule: Q01DX005 (ip), vehicle: water): 104 % of control

C=CCNc1nc2c(s1)c(C)c(O)c1ccccc12
T/C [1]: 93 % of control
T/C [2]: 96 % of control
T/C [3]: 106 % of control

CN(C)CCNC(c1ccccc1)C(O)c1ccccc1 (stereo not drawn)
T/C [12]: 100 % of control
T/C [13]: 101 % of control

COC(=O)C1CCC(c2ccccc2)(c2ccccc2)C1O.COC(=O)C1CCC(c2ccccc2)(c2ccccc2)C1O.[Cu] (stereo not drawn)
T/C [15]: 100 % of control
T/C [16]: 100 % of control
T/C [17]: 100 % of control

CN(C)CCCNc1c2ccccc2nc2c1c(=O)n(C)c(=O)n2C
T/C (dose: 60.0 mg/kg/injection, schedule: Q01DX005 (ip), vehicle: saline): 101 % of control
T/C (dose: 120.0 mg/kg/injection, schedule: Q01DX005 (ip), vehicle: saline): 107 % of control

O=C(O)C1(Cc2ccccc2)C(=O)C=Cc2ccccc21 (stereo not drawn)
T/C [15]: 101 % of control
T/C [16]: 101 % of control
T/C [17]: 97 % of control

NCCC(N)=O
T/C [7]: 100 % of control
T/C (dose: 100.0 mg/kg/injection, schedule: Q04DX003 (ip), vehicle: saline sonified): 109 % of control
T/C [8]: 95 % of control
T/C (dose: 200.0 mg/kg/injection, schedule: Q04DX003 (ip), vehicle: saline sonified): 100 % of control
T/C (dose: 400.0 mg/kg/injection, schedule: Q01DX009 (ip), vehicle: saline): 100 % of control
T/C (dose: 400.0 mg/kg/injection, schedule: Q04DX003 (ip), vehicle: saline sonified): 100 % of control

CN(/C(=N/C(=S)NCc1ccccc1)SCc1ccccc1)c1ccccc1
T/C [4]: 94 % of control
T/C [5]: 86 % of control

N#CC(C#N)=CNc1ccccc1
T/C [9]: 100 % of control
T/C [10]: 106 % of control
T/C [11]: 104 % of control

CC1CCC(C(C)C)C(NN)C1 (stereo not drawn)
T/C [4]: 104 % of control
T/C [5]: 100 % of control
T/C [6]: 108 % of control

Oc1cc2c3c(c1)-c1c(ccc(O)c1O)CC3NCC2 (stereo not drawn)
T/C (dose: 3.13 mg/kg/injection, schedule: Q04DX003 (ip), vehicle: DMSO): 99 % of control
T/C (dose: 6.25 mg/kg/injection, schedule: Q04DX003 (ip), vehicle: DMSO): 103 % of control
T/C (dose: 12.5 mg/kg/injection, schedule: Q04DX003 (ip), vehicle: DMSO): 109 % of control
T/C (dose: 25.0 mg/kg/injection, schedule: Q04DX003 (ip), vehicle: DMSO): 110 % of control
T/C (dose: 50.0 mg/kg/injection, schedule: Q04DX003 (ip), vehicle: DMSO): 117 % of control

O=C(CCCCCS)NCCCCCCCCCCNC(=O)CCCCCS
T/C (dose: 100.0 mg/kg/injection, schedule: Q04DX002 (ip), vehicle: Klucel (hydroxypropylcellulose) (HPC)): 97 % of control
T/C (dose: 200.0 mg/kg/injection, schedule: Q04DX002 (ip), vehicle: Klucel (hydroxypropylcellulose) (HPC)): 92 % of control
T/C (dose: 400.0 mg/kg/injection, schedule: Q04DX002 (ip), vehicle: Klucel (hydroxypropylcellulose) (HPC)): 90 % of control

CSC(=Nc1ccc(C)c(Cl)c1)NC#N
T/C [12]: 98 % of control
T/C [13]: 91 % of control
T/C [14]: 92 % of control
